Where a SMILES comes first, the peptide text is derived from it. [ ]: non-standard residue; d: D form. Dmt = Cc1cc(O)cc(C)c1C[C@H](N)C(=O)O
Key:
[1] = test system: several mammalian cell types; settings: cited from earlier work
[2] = 0.01-0.25 mg/kg/hr IV, five days
Description: Control mitochondrial myopathy subjects (Group 4) received equal volumes of saline solution administered for two hours. All groups were treated for five consecutive days. The demographics of the subjects are disclosed in Table 5.

Compound | penetration of the plasma membrane [1] | serious adverse events [2] | vital signs, electrocardiograms, clinical laboratory findings [2]
2′,6′-Dmt-D-Arg-Phe-Lys-NH2 | readily penetrates the plasma membrane of several mammalian cell types in an energy-independent manner | – | –
Cc1cc(O)cc(C)c1C[C@H](NC(=O)[C@H](N)CCCNC(=N)N)C(=O)N[C@@H](CCCCN)C(=O)N[C@@H](Cc1ccccc1)C(N)=O [D-Arg-2′,6′-Dmt-Lys-Phe-NH2] (H-[dR][Dmt]KF-NH2) | – | None of the test subjects exhibited any serious adverse events | no significant trends changes
